# Data taken from ChEMBL document CHEMBL1629509, “Design, synthesis and inhibitory activity against Mycobacterium tuberculosis thymidine monophosphate kinase of acyclic nucleoside analogues with a distal imidazoquinolinone” (Eur J Med Chem, 2010).
# pKi: −log10 of the molar value. Active and inactive are the calls of the source. The rule behind the calls is not given here.
# Columns and labels:
# [1] = tested on: Mycolicibacterium smegmatis; test: Antimycobacterial activity against Mycobacterium smegmatis mc2155 assessed as growth inhibition at 160 ug/ml by resazurin microtiter plate assay; format: functional, organism-based
# Thymidylate kinase = biological target: T1, Thymidylate kinase (Mycobacterium tuberculosis, UniProt P9WKE1); test: Inhibition of Mycobacterium tuberculosis Thymidine monophosphate kinase by spectrophotometry
# T1 sequence (P9WKE1 whole entry): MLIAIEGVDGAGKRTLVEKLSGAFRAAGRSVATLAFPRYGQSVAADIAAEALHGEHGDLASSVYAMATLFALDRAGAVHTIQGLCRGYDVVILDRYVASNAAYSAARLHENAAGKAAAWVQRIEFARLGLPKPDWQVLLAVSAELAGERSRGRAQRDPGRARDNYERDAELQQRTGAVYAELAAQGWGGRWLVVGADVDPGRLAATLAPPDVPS
# [2] = Solubility of the compound in water; format: physicochemical
SMILES,Activity [1],pKi (Thymidylate kinase),solubility [2] [µg/mL]
Cc1cn(C/C=C/Cn2c(=O)n3c4c(cccc42)CCC3)c(=O)[nH]c1=O,inactive,5.94,
Cc1cn(C/C=C/CN2c3cccc4c3N(CCC4)S2(=O)=O)c(=O)[nH]c1=O,inactive,6.24,
CC(=O)Nc1cc2c3c(c1)n(C/C=C/Cn1cc(C)c(=O)[nH]c1=O)c(=O)n3CCC2,inactive,6.03,
O=c1[nH]c(=O)n(C/C=C/CN2c3cccc4c3N(CCC4)S2(=O)=O)cc1Br,inactive,6.52,
CC(=O)NC1Cc2cccc3c2n(c(=O)n3C/C=C/Cn2cc(C)c(=O)[nH]c2=O)C1 (stereo not drawn),inactive,5.24,
Cc1cn(C/C=C/Cn2c(=O)n3c4c(cc(N)cc42)CCC3)c(=O)[nH]c1=O,inactive,5.61,
Cc1cn(C/C=C/CN2C(=O)c3cccc4cccc2c34)c(=O)[nH]c1=O,,6.38,640
Cc1cn([C@H]2C[C@H](O)[C@@H](COP(=O)(O)O)O2)c(=O)[nH]c1=O [THYMIDINE MONOPHOSPHATE],,5.35,
Cc1cn(C/C=C/CN2c3cccc4cccc(c34)S2(=O)=O)c(=O)[nH]c1=O,,6.57,
Cc1cn(C/C=C/Cn2c(=O)n3c4c(cccc42)CC(N)C3)c(=O)[nH]c1=O (stereo not drawn),inactive,5.15,
